Measured values reported in publication PMC10783034, “Pharmacokinetic and pharmacodynamic evaluation of the atypical tetracyclines chelocardin and amidochelocardin in murine infection models” (Microbiology Spectrum, 2023).
≈ marks a conversion by molar mass, not a printed value.

Experiments:
[1] = test system: E. coli ATCC 25922; test: MIC determination; type: cell-based; conditions: Escherichia coli, ATCC25922; MHB medium; read-out: MIC
Protocol: (§1) The assay was conducted as described previously ([54]) with the following modifications. The MIC was tested against the K. pneumoniae strain ATCC 43816 in an MHB (not cation-adjusted) medium. CHD and CDCHD were tested in concentrations ranging from 0.078 to 10 µg/mL. Moreover, the MIC was determined for the following strains: K. pneumoniae DSM-30104, E. faecium DSM-20477, S. aureus DSM-346, P. aeruginosa DSM-11128, A. baumannii DSM-30008, E. aerogenes DSM-30053, E. coli ATCC 25922, and E. coli C175-94. All strains were grown in MHB medium, except for E. faecium, which was grown in TSB. CHD, epi-CDH, and CDCHD were tested in concentrations ranging from 0.125 to 64 µg/mL as described previously ([19]).

[2] = test system: E. coli ATCC 25922; test: Neutropenic thigh infection model in CD-1 mice; type: in vivo; conditions: 20 mg/kg IV BID, positive control
Protocol: (§2) The inoculum for K. pneumoniae ATCC 43816 was prepared freshly as described previously to yield 1 × 10^4 cfu/mL ([56]). The inoculum of the E. coli ATCC 25922 was diluted from a frozen stock to 1.4 × 10^6 cfu/ml. N = 6 animals per group were used for both tested strains. N = 4 mice were used in the pre-treatment group in the neutropenic thigh infection model with E. coli ATCC 25922. Mice were rendered neutropenic by administration of 150 mg/kg and 100 mg/kg cyclophosphamide intraperitoneally on days −4 and −1, respectively. On the day of infection (day 0), mice received 30 µL of the inoculum of K. pneumoniae ATCC 43816 into each lateral thigh under isoflurane anesthesia, corresponding to 6 × 10^2 cfu/mouse. In the model with E. coli, mice received 50 µL of the inoculum of E. coli into each lateral thigh under isoflurane anesthesia, corresponding to 1.4 × 10^5 cfu/mouse. Whilst still under anesthesia, mice were administered a dose of Buprenorphine (0.03 mg/kg) subcutaneously for pain relief. 24 hours after infection, mice were euthanized by slowly introducing CO2 and cardiac puncture to remove blood from the heart immediately after death. Kidneys and thighs were aseptically removed. 24 hours after infection, the clinical score of every individual animal was assessed. Clinical scoring comprises the assessment of different parameters such as spontaneous behavior, posture, appearance, and provoked behavior. Each parameter was assessed with a score of 0 to 3 (ascending severity from 0 to 3). The humane endpoint was reached when the clinical score of a single parameter was 3 or if the total clinical score was higher than 8. Whole blood was collected into Eppendorf tubes coated with 0.5 M EDTA. Organs were homogenized in 0.9% NaCl solution. Organs and blood were plated onto agar plates in duplicates in serial dilutions and incubated at 37°C for 24 hours. 25 µL per dilution of the homogenized organ was spotted onto agar plates. In addition, 1 mL of homogenized organ is streaked onto an agar plate in technical duplicates. If no single colony is observed then, this would result in 0 cfu/mL. Thus, the threshold of detection is 0 log10 cfu/g. The groups used in the different neutropenic thigh infection models are found in Tables S4 through S7. In brief, levofloxacin with 3.3 mg/kg TID IP was used as a positive control antibiotic for the K. pneumoniae model, whereas ciprofloxacin with 20 mg/kg BID IV was used for the E. coli model, respectively. The rationale for TID dosing was based on the PK/PD index of fAUC/MIC for fluoroquinolones ([57] [–] [59]). […] Moreover, CHD and CDCHD were administered at 10 mg/kg SC QID (t = 1,3,5,7 hours), 15 mg/kg SC TID (t = 1,4,7 hours), and 50 mg/kg SC QD (t = 1 hour) (Tables S5 and S6). In the E. coli neutropenic thigh infection model, CHD and CDCHD, respectively, were administered at 50 mg/kg IV QD (t = 1 hour) and 15 mg/kg IV BID (t = 1 and 6 hours) (Table S7).
(§3) For the neutropenic thigh infection model with E. coli ATCC 25922, the thighs were regarded as two independent infection sites throughout the experiment. For statistical analysis, individual thighs (left and right) were treated as separate samples although these were not completely independent values. For the neutropenic thigh infection model with K. pneumoniae ATCC 43816, the individual thighs (left and right) were treated as one sample. For the efficacy models, the non-parametric Kruskal-Wallis test was used with GraphPad Prism 9.4.1. For the ascending urinary tract infection model, an ordinary one-way ANOVA with Dunnett’s multiple comparison test was used with GraphPad Prism 9.4.1.

[3] = test system: E. coli C175-94; test: MIC determination; type: cell-based; conditions: Escherichia coli, C17594; MHB medium; read-out: MIC
Protocol: as §1

[4] = test system: E. coli C175-94; test: Ascending urinary tract infection model in OF-1 mice; type: in vivo; conditions: CHD/CDCHD 12 mg/kg SC BID, gentamicin 100 mg/kg SC BID
Protocol: (§4) The model was conducted as described previously ([27], [60]). In brief, n = 21 animals were used per group in the main study, and n = 3 animals per group in satellite groups for histopathological analysis. Three days before the start of the study and during the study, mice had free access to 5% glucose as drinking water. Fresh overnight colonies of E. coli from a 5% horse blood agar plate were suspended in PBS pH 7.4 to approximately 10^9 cfu/mL. Approximately 1 hour before inoculation, mice were treated orally with […] Nurofen (20 mg ibuprofen/mL corresponding to approximately 30 mg/kg) as a pain relief. Urine was removed from the bladder by gently pressing the abdomen and mice were anaesthetized with 0.15 mL Zoletil mix SC. Thereafter, the mice were inoculated. A syringe with a catheter, containing the bacterial suspension was inserted via the urethra into the bladder and 50 µL of the inoculum was slowly injected into the bladder. Hereafter, the mouse was placed in the cage and kept in a warming cabinet until fully awake (approximately 4 hours). The mice were treated with CHD (12 mg/kg SC BID), CDCHD (12 mg/kg SC BID), gentamicin (100 mg/kg SC BID), or vehicle BID (2nd dose was administered approximately 6 hours after the 1st dose on each day) on day 1, that is, first dose around 24 hours post-infection, and day 2 post-inoculation. The mice were observed during the study and scored based on their behavior and clinical signs. Clinical scoring comprised assessment of piloerection in the skin, activity (movement, curiosity), and appearance of eyes. The scoring range comprised 0–4. In our model, a maximum score of 1; thus, only mild discomfort was observed. On day 3 post-inoculation and after sampling urine, mice were euthanized by cervical dislocation, and bladder and kidneys were removed from 21 mice in each treatment group aseptically for cfu determination. The bladder and kidneys were stored at −80°C and later homogenized in 0.5 or 1 mL saline, respectively. Colony counts of urine were determined immediately. From the three additional mice in each treatment group (satellite groups), urine and plasma were sampled and frozen at −80°C, and bladders, kidneys, and liver were collected in 4% buffered formalin. Cfu was determined in urine samples within 2–3 hours after sampling. Frozen organs were thawed and homogenized with steel beads using a tissue lyser. All samples, urine, kidney, and bladder, were 10-fold diluted in saline and 20 µL spots were applied on blue agar plates in duplicates. In addition, undiluted samples of urine (2–100 μL depending on the available amount of urine) were spread on a separate agar plate to determine the colony counts at the lowest possible detection level. All agar plates were incubated for 18–22 hours at 35°C in ambient air.
as §3

[5] = Histopathological analysis of kidneys and bladder in the ascending urinary tract infection model (satellite groups); type: in vivo, mice; design: histopathological score Papilla / histopathological score Bladder: scale not given here
Protocol: as §4
Approximately 3 µm thick sections of formalin-fixed, paraffin-embedded samples of liver and kidney were analyzed blinded, and randomized to the experimental groups by a trained veterinarian. […] Kidneys were analyzed for changes in the glomeruli (not found), tubular dilation (1 = mild or up to 20% of tubuli affected, 2 = moderate or 25-40% of tubuli affected, 3 = severe 50% or more), and inflammatory infiltrate in the pelvis (1 = mild, 2 = moderate, 3 = severe).

[6] = test system: K. pneumoniae ATCC 43816; test: MIC determination; type: cell-based; conditions: Klebsiella pneumoniae, ATCC43816; MHB (not cation-adjusted) medium; read-out: MIC
Protocol: as §1

[7] = test system: K. pneumoniae ATCC 43816; test: Neutropenic thigh infection model in CD-1 mice; type: in vivo; conditions: levofloxacin 3.3 mg/kg IP TID
Protocol: as §2, §3

[8] = infected mice, CHD/CDCHD 12 mg/kg SC BID, gentamicin 100 mg/kg SC BID
[9] = 24 hours after infection, CHD/CDCHD 10 mg/kg SC QD or BID, vs vehicle

## O=C(O)c1cn(C2CC2)c2cc(N3CCNCC3)c(F)cc2c1=O [ciprofloxacin, reference compound]
[1]
  MIC: 8 ng/mL (≈ 0.0241 µM)
[2]
  bacterial burden in the thigh, compared with CHD and CDCHD: exerted a stronger effect

## CNC(C)C1CCC(N)C(OC2C(N)CC(N)C(OC3OCC(C)(O)C(NC)C3O)C2O)O1 (stereo not drawn) [gentamicin, reference compound]
[3]
  MIC: 0.75 µg/mL (≈ 1.57 µM)
[4]; control animals 23.8%
  animals with sterile kidneys: 95.2%
[4]; day 3, vs vehicle
  bacterial burden in kidneys: strong and significant reduction
  bacterial burden in the bladder: The same was observed for gentamicin
[5]; animal No. 1
  histopathological score Bladder: 1
[5]; animal No. 2
  histopathological score Bladder: 0
[5]; animal No. 3
  histopathological score Bladder: 1
[5]; [8]
  histopathological findings in bladder: mild, focal, submucosal inflammatory aggregates
  histopathological findings in kidneys: only a mild tubulus dilation without inflammatory cells in the renal pelvis

## C[C@H]1COc2c(N3CCN(C)CC3)c(F)cc3c(=O)c(C(=O)O)cn1c23 [levofloxacin, reference compound]
[6]
  MIC: 0.08 µg/mL (≈ 0.221 µM)
[7]; [9]
  bacterial burden in blood: The same was found in blood
  bacterial burden in the thigh: A significant reduction of bacterial burden
[7]; higher-dose studies: 10 mg/kg SC QID, 15 mg/kg SC TID, 50 mg/kg SC QD
  bacterial burden in the kidney: did not reduce bacterial burden with statistical significance
